How the values were obtained:
[1] = target: T1, human RNR (histidine tagged human M1 and human M2 proteins) (Homo sapiens, UniProt P23921); test: Human RNR inhibition effect (dCDP formation from CDP); format: biochemical; details: 10 μM CDP, 37° C. for 30 minutes, read-out: RNR inhibitory activity IC50
T1 construct: made in house; host or cells: Escherichia coli
T1 sequence (P23921 1-792): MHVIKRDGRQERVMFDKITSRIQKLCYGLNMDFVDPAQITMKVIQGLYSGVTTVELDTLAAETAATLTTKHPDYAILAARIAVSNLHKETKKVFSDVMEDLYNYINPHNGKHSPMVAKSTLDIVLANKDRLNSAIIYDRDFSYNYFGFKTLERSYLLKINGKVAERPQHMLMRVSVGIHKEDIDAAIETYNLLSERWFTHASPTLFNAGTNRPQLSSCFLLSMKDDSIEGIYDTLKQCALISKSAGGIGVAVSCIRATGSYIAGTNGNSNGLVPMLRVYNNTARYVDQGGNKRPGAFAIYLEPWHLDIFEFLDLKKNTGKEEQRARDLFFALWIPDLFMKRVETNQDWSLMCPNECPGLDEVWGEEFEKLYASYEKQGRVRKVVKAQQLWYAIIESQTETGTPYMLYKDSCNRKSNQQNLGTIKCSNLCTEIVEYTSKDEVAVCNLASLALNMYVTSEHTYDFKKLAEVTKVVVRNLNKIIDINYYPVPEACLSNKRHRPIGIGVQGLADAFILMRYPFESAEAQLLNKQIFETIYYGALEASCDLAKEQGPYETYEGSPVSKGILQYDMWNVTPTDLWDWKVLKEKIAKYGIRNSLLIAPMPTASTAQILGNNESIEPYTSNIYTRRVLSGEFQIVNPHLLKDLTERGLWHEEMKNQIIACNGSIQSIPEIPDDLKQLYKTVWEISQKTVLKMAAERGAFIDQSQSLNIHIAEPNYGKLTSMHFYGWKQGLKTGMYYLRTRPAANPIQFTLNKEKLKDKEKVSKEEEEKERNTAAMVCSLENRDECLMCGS
Procedure, shortened: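 His-tagged human M1 (isoform 1) and N-terminal 59-aa-truncated M2 (isoform 2), E. coli-expressed, Ni-purified, preincubated 20 min with compound (1% DMSO). Reaction with 10 μM CDP, 2 mM ATP, 0.24 mM NADPH, 6 mM DTT, 4 mM Mg acetate, 100 mM KCl, 50 mM HEPES pH 7.2, 30 min at 37° C. dCDP formed quantified by reverse-phase HPLC after heat stop.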

[2] = tested on: NCI-H460 cells; test: Cell proliferation inhibitory effect on human cancer cell lines: NCI-H460; format: cell-based; details: 72 h, NCI-H460, Lung Cancer, ATCC recommended RPMI-1640 + 10% FBS, 1000 cell/well
Description: (§1) Human derived breast cancer cell line HCC 1806 cells (American Type Culture Collection, ATCC) were daily passaged at a cell density not exceeding 80% in ATCC recommended Roswell Park Memorial Institute medium (RPMI-1640) containing 10% fetal bovine serum (FBS). In order to start the test of cell proliferation inhibitory activity, HCC 1806 cells were suspended in the above medium, after seeing at 180 μL in each well of a 96-well flat bottom plate so that the number of cells per well was 2,000, the cells were cultured at 37° C. for 1 day in an incubator containing 5% carbon dioxide gas.
(§2) On the next day, the Example compound was dissolved in DMSO, and 20 μL of a drug additive solution diluted serially with distilled water to 10 times of the final concentration was added to each well of the culture plate of the cells, and the cells were cultured at 37° C. for 72 hours in an incubator containing 5% carbon dioxide gas. […] 100 μL of an extract solution (0.1 N NaH2PO4: 100% ethanol=1:1) was added to each well and mixed, and the mixture was measured at a wavelength of 540 nm using a plate reader (MTP-450 manufactured by Corona Electric Co., Ltd.). […]
(§3) According to the method of Test Example 2, the cell proliferation inhibitory effect on various cancer cell lines as described in Table 24 was evaluated. […]

[3] = tested on: ACHN cells; test: Cell proliferation inhibitory effect on human cancer cell lines: ACHN; format: cell-based; details: 72 h, Kidney Cancer, EMEM + 10% FBS, 2000 cell/well
Description: as §1, §2, §3

[4] = tested on: A2780 cells; test: Cell proliferation inhibitory effect on human cancer cell lines: A2780; format: cell-based; details: 72 h, A2780, Ovarian Cancer, RPMI-1640 + 10% FBS, 2000 cell/well
Description: as §1, §2, §3

[5] = tested on: MV-4-11; test: Antitumor effect in human-derived blood cancer cell line (MV-4-11) subcutaneous transplantation model (in vivo); parameters: species or system nude mouse (BALB/cA Jcl-nu/nu); details: oral, 100 mg/kg/day once per day for 14 days; RTV vs control group, Student-t test, p<0.05
Description: A human-derived blood cancer cell line MV-4-11 was transplanted subcutaneously into a nude mouse (BALB/cA Jcl-nu/nu, CLEA Japan, Inc.), and at the time when the tumor volume of the nude mouse on which the engrafted tumor reached 100 to 300 mm^3, four mice were assigned to each group by random stratification so that the average of the tumor volumes of each group was uniform (day 0), and the Example compound was orally administered daily at 100 mg/kg/day once per day for 14 days. Example Compound dosing solutions were prepared using 0.5% HPMC.
An electric balance for animals was used in body weight measurement. Rate of change in body weight on day n (BWCn) from body weight on day n (BWn) was calculated according to the following equation.
Rate of change in body weight BWCn (%)=(BWn−BW0)/BW0×100
Tumor volume (TV) was calculated according to the following equation by sandwiching and measuring the major axis and the minor axis with a digital caliper.
Tumor volume (mm^3)=Major axis (mm)×Minor axis (mm)×Minor axis (mm)/2
In order to compare the chronological transition of proliferation of tumor for the administration of each compound, relative tumor volume (RTV) setting the tumor volume at the time of grouping as 1 as the tumor proliferation rate was calculated according to the following formula, and the transition of the average value of RTV of each individual are shown in FIGS. 1 to 4.
RTV=(tumor volume at the day of tumor volume measurement)/(tumor volume at the time of the grouping)

[6] = Non-Patent Document 10; cited from earlier work
[7] = tested on: non-small cell lung cancer cell line; details: combination with cytarabine or gemcitabine; Non-Patent Document 11; cited from earlier work
[8] = tested on: mouse leukemia models; details: combination with etoposide or cisplatin; Non-Patent Document 12; cited from earlier work
[9] = tested on: GB-1 cells; test: Cell proliferation inhibitory effect on human cancer cell lines: GB-1; format: cell-based; details: GB-1, Glioblastoma, DMEM + 10% FBS, 3000 cell/well
Description: as §1
(§4) On the next day, the Example compound was dissolved in DMSO, and 20 μL of a drug additive solution diluted serially with distilled water to 10 times of the final concentration was added to each well of the culture plate of the cells, and the cells were cultured at 37° C. for 72 hours in an incubator containing 5% carbon dioxide gas. After culturing for 72 hours, 20 μL of glutaraldehyde was added to each well and allowed to stand for 30 minutes, then the plate was washed 10 times with water and was dried. 100 μL of a stain solution (0.05% crystal violet in a 20% methanol solution) was added to each well and allowed to stand for 30 minutes, then the plate was washed 10 times with water and was dried. 100 μL of an extract solution (0.1 N NaH2PO4: 100% ethanol=1:1) was added to each well and mixed, and the mixture was measured at a wavelength of 540 nm using a plate reader (MTP-450 manufactured by Corona Electric Co., Ltd.).
(§5) The growth inhibition rate was calculated from the following formula, and the concentration (IC50 (μM)) of a compound inhibiting 50% was determined.
as §3

[10] = tested on: HCC 1806 cells; test: Cell proliferation inhibitory effect on human breast cancer cell line; format: cell-based; details: HCC1806, 72 h, crystal violet, read-out: Cell growth suppression IC50
Description: as §1, §4, §5
Growth inhibition rate (%){(C-B)−(T-B)}(C-B)×100
T: Absorbance of well to which Example compound was added
C: Absorbance of wells to which no Example compound was added
B: Absorbance of wells to which no cell was added

[11] = target: T2, RNR (Homo sapiens, UniProt P31350); details: Non-Patent Document 7; cited from earlier work
T2 sequence (P31350 1-389): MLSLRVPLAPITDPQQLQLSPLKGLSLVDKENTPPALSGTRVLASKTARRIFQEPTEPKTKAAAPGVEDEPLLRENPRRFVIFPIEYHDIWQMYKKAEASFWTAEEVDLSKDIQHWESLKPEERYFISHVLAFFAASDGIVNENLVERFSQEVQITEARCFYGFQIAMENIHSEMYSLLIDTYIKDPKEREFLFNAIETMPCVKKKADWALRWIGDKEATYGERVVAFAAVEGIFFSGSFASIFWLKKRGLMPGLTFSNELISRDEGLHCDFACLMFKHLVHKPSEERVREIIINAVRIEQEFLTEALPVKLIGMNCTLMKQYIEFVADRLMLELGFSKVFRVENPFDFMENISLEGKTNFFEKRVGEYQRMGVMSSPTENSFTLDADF

| IC50 [1] | IC50 [9] | SMILES | antitumor effect (relative tumor volume, RTV) [5] | also measured |
| --- | --- | --- | --- | --- |
| 0.03 µM | – | [2H]C([2H])([2H])C1(O)CCOc2c(S(=O)(=O)N[C@H](c3n[nH]c(=O)o3)[C@H](C)c3c(F)ccc(C)c3C)ccc(Cl)c21 (single isomer, unassigned) [Example 200A] | antitumor effect | IC50 [2]: 0.13 µM; IC50 [3]: 0.13 µM; IC50 [4]: 0.13 µM |
| – | – | NC(=S)NN=Cc1ncccc1N [Example 3-AP, 3-aminopyridine-2-carboxaldehyde thiosemicarbazone] | – | side effects in clinical cases [6]: hypoxia, dyspnea, methemoglobinemia; cell proliferation inhibitory effect in combination [7]: enhancement in cell proliferation inhibitory effect; life extending effect in combination [8]: enhancement in life extending effect |
| 0.14 µM | 1.57 µM | Cc1ccc(F)c([C@@H](C)[C@H](NS(=O)(=O)c2ccc(Cl)cc2C(N)=O)c2n[nH]c(=O)o2)c1C [Example 5] | antitumor effect | – |
| 0.18 µM | 5.22 µM | CCc1ccc(F)c([C@@H](C)[C@H](NS(=O)(=O)c2ccc(Cl)cc2C(N)=O)c2n[nH]c(=O)o2)c1C [Example 11, 5-chloro-2-(N-((1S,2R)-2-(3-ethyl-6-fluoro-2-methylphenyl)-1-(5-oxo-4,5-dihydro-1,3,4-oxadiazol-2-yl)propyl)sulfamoyl)benzamide] | antitumor effect | – |
| 0.15 µM | – | COc1c(S(=O)(=O)N[C@H](c2n[nH]c(=O)o2)[C@H](C)c2c(F)ccc(C)c2C)ccc(Cl)c1C(C)O (stereo partly drawn) [Example 204, 4-chloro-N-((1S,2R)-2-(6-fluoro-2,3-dimethylphenyl)-1-(5-oxo-4,5-dihydro-1,3,4-oxadiazol-2-yl)propyl)-3-(1-hydroxyethyl)-2-methoxybenzenesulfonamide] | – | IC50 [10]: 0.15 µM |
| – | – | NC(=O)NO [HU, hydroxyurea] | – | RNR inhibitory activity [11]: very weak |

— patent US20200405697A1, “Antitumor Agent” (Taiho Pharmaceutical Co., Ltd, priority 2017, published 2020)
